Reference: patent US6989387B2, “Nitro and amino substituted topoisomerase agents” (Rutgers, The State University of New Jersey, priority 2002, dated 2006)
Where two headings read alike, the source gives them in different places.

Columns and labels:
[1] = target: T1, human topoisomerase I (Homo sapiens, UniProt P11387); assay: Test A: topoisomerase I-mediated DNA cleavage assay; format: biochemical; conditions: relative effective concentration, relative to topotecan = 1, producing the same cleavage of plasmid DNA in presence of human TOP1
T1 construct: unnamed fusion partner (recombinant fusion protein, T7 expression system); made in house; host or cells: E. coli
T1 sequence (P11387 1-765): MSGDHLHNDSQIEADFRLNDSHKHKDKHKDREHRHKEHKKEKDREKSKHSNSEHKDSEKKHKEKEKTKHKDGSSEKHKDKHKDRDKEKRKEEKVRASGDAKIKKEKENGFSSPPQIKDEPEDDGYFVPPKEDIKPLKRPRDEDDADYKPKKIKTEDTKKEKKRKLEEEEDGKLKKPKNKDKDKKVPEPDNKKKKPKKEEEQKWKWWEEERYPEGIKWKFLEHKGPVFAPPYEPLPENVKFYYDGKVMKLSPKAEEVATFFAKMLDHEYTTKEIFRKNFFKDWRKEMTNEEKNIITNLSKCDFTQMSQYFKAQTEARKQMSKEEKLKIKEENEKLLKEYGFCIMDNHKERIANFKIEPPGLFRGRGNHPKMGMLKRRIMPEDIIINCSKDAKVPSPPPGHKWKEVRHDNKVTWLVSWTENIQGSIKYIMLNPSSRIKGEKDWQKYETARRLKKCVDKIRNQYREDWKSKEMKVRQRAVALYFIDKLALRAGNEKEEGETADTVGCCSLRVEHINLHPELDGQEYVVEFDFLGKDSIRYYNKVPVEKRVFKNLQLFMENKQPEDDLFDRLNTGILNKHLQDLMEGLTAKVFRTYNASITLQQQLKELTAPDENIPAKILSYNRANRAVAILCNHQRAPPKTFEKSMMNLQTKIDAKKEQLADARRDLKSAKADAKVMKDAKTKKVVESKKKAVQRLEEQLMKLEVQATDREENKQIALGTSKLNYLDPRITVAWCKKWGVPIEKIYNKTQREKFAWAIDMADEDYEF
Text: Test A. Topoisomerase-Mediated DNA Cleavage Assays
Human topoisomerase I was expressed in E. Coli and isolated as a recombinant fusion protein using a T7 expression system as described by Gatto, B., et al., Cancer Res. 1996, 56, 2795–2800. Plasmid YepG was purified by the alkali lysis method followed by phenol deproteination and CsCl/ethidium isopycnic centrifugation method as described by Maniatis, T., et al., J. Molecular Cloning, a Laboratory Manual; Cold Spring Harbor Laboratory: Cold Spring Harbor, N.Y. 1982; pp 149–185. The end-labeling of the plasmid was accomplished by digestion with a restriction enzyme followed by end-filling with Klenow polymerase as previously described by Tewey, K. M., et al., Science 1984, 226, 466–468. The cleavage assays were performed as previously reported (see Gatto, B., et al., Cancer Res. 1996, 56, 2795–2800; and Wang, H., et al., Biochemistry 2001, 40; 3316–3323). The drug and the DNA in presence of topoisomerase I was incubated for 30 minutes at 37° C. The reactions were terminated by the addition of 5 μl of 5% SDS and 1 mg/ml […] with an additional 1 hour of incubation at 37° C. Samples were then alkali denatured by the addition of NaOH, EDTA, sucrose, and bromophenol blue to final concentrations of 75 mM, 2.5%, and 0.05 mg/ml, respectively, prior to loading onto a neutral agarose gel. After development of the gels, typically 24-hour exposure was used to obtain autoradiograms outlining the extent of DNA fragmentation.

[2] = system: RPMI8402 cells; assay: Test B: MTT-microtiter plate tetrazolinium cytotoxicity assay, RPMI8402; format: cell-based, human; conditions: RPMI 8402, 96 h, read-out: Cytotoxicity (IC50; μM) RPMI8402
Experimental: (§1) The cytotoxicity was determined using the MTT-microtiter plate tetrazolinium cytotoxicity assay (MTA—See Mosmann, T., J. Immunol. Methods 1983, 65, 55–63; Carmichael, J., et al., Cancer Res. 1987, 47, 936–942; and Denizot, F., et al., J. Immunol. Methods 1986, 89, 271–277). […] The cytotoxicity assay was performed using 96-well microtiter plates. Cells were grown in suspension at 37° C. in 5% CO2 and maintained by regular passage in RPMI medium supplemented with 10% heat- inactivated fetal bovine serum, L-glutamine (2 mM), penicillin (100 U/mL), and streptomycin (0.1 mg/mL). […] For determination of IC50, cells were exposed continuously for 4 days to varying concentrations of drug, and MTT assays were performed at the end of the fourth day. […] All assays were performed at least twice in 6 replicate wells.

[3] = system: CPT-K5 cells; assay: Test B: MTT-microtiter plate tetrazolinium cytotoxicity assay, CPT-K5; format: cell-based; conditions: Homo sapiens, CPT-K5, 96 h, read-out: Cytotoxicity (IC50; μM) CPT-K5
Experimental: as §1

Structure (SMILES) | TOP1-mediated DNA Cleavage (REC) [1] | melting point [°C] | IC50 ([2]; human lymphoblast RPMI8402, 4 days of continuous drug exposure, MTT) [µM] | IC50 [3] [µM] | IC50 ([2]; Homo sapiens) [µM]
CC[C@@]1(O)C(=O)OCc2c1cc1n(c2=O)Cc2cc3ccccc3nc2-1 [Camptothecin, reference compound] | 0.5 | – | 0.005 | – | –
CN(C)CCn1c(=O)c2ccccc2c2cnc3cc4c(cc3c21)OCO4 [Compound 3, 2,3-Methylenedioxy-5-[2-(N,N-dimethylamino)ethyl]-5H-dibenzo[c,h]1,6-naphthyridin-6-one, reference compound] | 6 | – | – | 0.95 | 0.06
CN(C)CCn1c(=O)c2cc([N+](=O)[O-])ccc2c2cnc3cc4c(cc3c21)OCO4 [Compound 4a, 8-Nitro-2,3-methylenedioxy-5-[2-(N,N-dimethylamino)ethyl]-5H-dibenzo[c,h][1,6]naphthyridin-6-one] | 0.2 | 219 to 220 | – | 0.33 | 0.003
CN(C)CCn1c(=O)c2cc(N)ccc2c2cnc3cc4c(cc3c21)OCO4 [Compound 4b, 8-Amino-2,3-methylenedioxy-5-[2-(N,N-dimethylamino)ethyl]-5H-dibenzo[c,h][1,6]naphthyridin-6-one] | 8.0 | 245 to 246 | – | 0.38 | 0.08
CC[C@@]1(O)C(=O)OCc2c1cc1n(c2=O)Cc2cc3c(CN(C)C)c(O)ccc3nc2-1 [Topotecan, reference compound] | 1 | – | – | > 50 | 0.012

The next lines start with results.

TOP1-mediated DNA Cleavage (REC) [1] | melting point [°C] | Structure (SMILES) | IC50 ([2]; human lymphoblast RPMI8402, 4 days of continuous drug exposure, MTT) [µM] | IC50 [3] [µM] | IC50 ([2]; Homo sapiens) [µM]
0.1 | 258 to 259 | CN(C)CCn1c(=O)c2ccc([N+](=O)[O-])cc2c2cnc3cc4c(cc3c21)OCO4 [Compound 5a, 9-Nitro-2,3-methylenedioxy-5-[2-(N,N-Dimethylamino)Ethyl]-5H-dibenzo[c,h][1,6]naphthyridin-6-one] | – | 2.8 | 0.002
0.5 | 300 to 301 | CN(C)CCn1c(=O)c2ccc(N)cc2c2cnc3cc4c(cc3c21)OCO4 [Compound 5b, 9-Amino-2,3-methylenedioxy-5-[2-(N,N-dimethylamino)ethyl]-5H-dibenzo[c,h][1,6]naphthyridin-6-one] | – | 1 | 0.025
1000 | 189 to 190 | CN(C)CCn1c(=O)c2cccc([N+](=O)[O-])c2c2cnc3cc4c(cc3c21)OCO4 [Compound 6a, 10-Nitro-2,3-methylenedioxy-5-[2-(N,N-dimethylamino)Ethyl]-5H-dibenzo[c,h][1,6]naphthyridin-6-one] | – | > 10 | 4.8
15 | 223 to 224 | CN(C)CCn1c(=O)c2cccc(N)c2c2cnc3cc4c(cc3c21)OCO4 [Compound 6b, 10-Amino-2,3-methylenedioxy-5-[2-(N,N-dimethylamino)ethyl]-5H-dibenzo[c,h][1,6]naphthyridin-6-one] | – | 3.2 | 0.34
>1000 | – | COc1cc([C@@H]2c3cc4c(cc3[C@@H](O[C@@H]3O[C@@H]5CO[C@@H](c6cccs6)O[C@H]5[C@H](O)[C@H]3O)[C@H]3COC(=O)[C@H]23)OCO4)cc(OC)c1O [VM-26, reference compound] | – | 0.28 | 0.22
